Series [1] concerns thymoma line EL4. In words: Annexin V/PI apoptosis detection, EL4. The series is classed as cell-based. How it is done: (§1) Cell apoptosis was detected with Annexin V/PI apoptosis detection Kit. Briefly, cells were stimulated with HSLs or left untreated. 6 hrs later, cells were collected and stained with Annexin VFITC and PI for 15 min at RT, then the apoptotic effect was measured by flow cytometry. OT-I or OT-II splenocytes were pulsed with specific peptides or PMA and ionomycin mixture with or without HSLs or TNF α plus cycloheximide. 24 hrs later, cells and supernatants were collected separately. For OT-I activation, cells were stained with CD69 and CD8. For OT-II activation, cells were stained with CD69 and CD4. Cell activation was measured by flow cytometry. All supernatants were detected for IL-2 secretion by ELISA.

Series [2] deals with THP-1 cell line. The series can be described thus: Annexin V/PI apoptosis detection, THP-1. The series is classed as cell-based, human. To be noted: THP-1. On the procedure:
as §1
In order to verify TNFR1-FADD-caspase8-caspase3 pathway inhibitor can block immunocyte apoptosis caused by 3OC12-HSL clinically. The inventors use a clinical version of caspase inhibitor Emricasan as a test. […] To be specific, in a 12 plate, THP-1 cells were cultured with indicated concentrations of 3OC and Emricasan. After 1 hr, cells were collection for flow cytometric analysis of AnnexinV and PI. […] In FIG. 17b, live cell percentage of different treatment were enumerated by flow cytometry. Bar graphs of live cell percentage are depicted by mean±SEM. Then samples prepared as in FIG. 17a and FIG. 17b were used for WB analysis for the activation (cleavage) of Caspase 8 and 3. […]

For series [3], the system named is caspases 8 and 3. In words: Caspase 8 and 3 cleavage in human cells (Western blot). The series is classed as cell-based. To be noted: human (FIGS. 3a and b).
Series [4] can be described thus: Atomic force microscopy of reconstituted lipid domains. The series is classed as physicochemical. How it is done:
[…] The dried lipid film was resuspended with 4 mM HEPES buffer (with 150 mM NaCl) to produce SUV. Vesicle solution (100 μl) was added to freshly cleaved mica clamped in a fluid cell on the AFM heater head. After incubation at 55° C. for 30 min and then kept at RT for another 30 min, the bilayers were rinsed extensively with HEPES buffer to remove excess vesicles.
AFM images were obtained at RT on a NanoScope V Multimode Scanning Probe Microscope (Digital Instrument, Veeco, Santa Barbara, Calif., USA) in the tapping mode using V shape Si3N4 tips (model DNL-10) with spring constants of ˜0.35 N/m and resonance frequencies between 8 and 10 kHz in aqueous solutions. All experiments were conducted in Hepes buffer using a commercially available fluid cell, sealed by an O-ring. A J scanner (125 μm×125 μm) was used with a scan rate between 0.8 and 2 Hz per line.

Series [5] is described as follows: Lipid binding assay. The series is classed as physicochemical. To be noted: DOPC, DPPC, PE, cholesterol, sphingomyelin individually or in combination. On the procedure: 1 mg/ml of each lipid species in chloroform was coated on round glass slides by evaporation.
Then the glass slices were incubated with 100 μM 3OC12 HSL in DMSO in PBS at 37° C. After the incubation, the glass slices were washed slightly with PBS for 4-5 times and lipids were dissolved with DMSO. The amount of 3OC12 HSL in each sample was measured by QS bioassay as described above.

Series [6] relates to EGFR. In words: MSFQ, EGFR dimerization. To be noted: in comparison with the carrier treatment. The series is classed as cell-based, human. How it is done:
Single molecule photo-bleaching step counting: 0.5 μg TNFR1(1-293)-peGFP-N1 plasmid or 0.5 μg EGFR-peGFP-N1 plasmid was transfected into HeLa cells and cultured for 5-6 hrs. Then the cells were stimulated with HSLs, TNF α, or left untreated, and washed twice with PBS and fixed with 4% paraformaldehyde before imaging. GFP was excited at 488 nm with a laser power of 5 mW measured after the laser passing through the objective. The collected fluorescent signal was gated by a band-pass filter HQ 525/50 (Chroma Technology). The EM gain of the EMCCD camera was set at 300. Movies of 400 frames were acquired for each sample at a full-frame rate of 10 Hz. For imaging analysis, the background fluorescence was firstly subtracted from the movie acquired from the fixed cells using the rolling ball method in Image J software, and regions of interest on movies were selected manually according to the outline of cells. To analyze the bleaching steps, the fluorescence time courses of each fluorescent spots were first constructed by Image J plugin and bleaching steps were then counted manually.

In series [7] the test system is Fcγ RIIA. In words: Quantum dot-based single particle tracking, Fcγ RIIA in Cos-1 cells. The series is classed as cell-based, human. How it is done:
To track individual TNFR1 on the cell membrane, anti-TNFR1 IgG (was first papain digested to yield a Fab fragment. The Fab was then conjugated with biotin through the unique —SH at its C terminal. To prepare anti TNFR1 Fab QD conjugates, a solution of 0.7 nM anti TNFR1—Fab-biotin in 1 ml of DMEM was added drop-wise to 1 ml of 2 nM QD 605-streptavidin conjugate. Cell monolayers (50% confluent) previously serum starved for 1 hr were treated with 3OC12 HSL or left untreated and incubated with […] of the final anti TNFR1-Fab-QD solution at 25° C. for 2 min. The cells were then washed twice with PBS at 25° C., placed in serum-free medium, and loaded for imaging. For single-FcRγIIA tracking, Fc fragment was obtained by papain digestion of an anti-BSA IgG (Sigma Aldrich). Fc-QD conjugate was produced as described before. Cos-1 cells were transiently transfected with Fcγ RIIA plasmid, 24 hrs later, cells were stimulated with 3OC12 HSL or left untreated and incubated with […] of the final Fc-QD solution at 25° C. for 2 min. Quantum dot-labeled cells were imaged in TIRF mode. The fluorescence was excited at 488 nm and gated by a band-pass filter (575-640, Carl Zeiss). The excitation power was about 2 mW measured after the objective. Movies of 400 frames were acquired for each sample at a full-frame rate of 17 Hz. Individual trajectories were constructed by Utrack written in Matlab. Diffusion coefficient and plot area were calculated by customized programs written with Matlab. For motion pattern determination by MSD-t analysis 5: linear, simple Brownian diffusion; open-up parabolic, directed diffusion; open-down parabolic, restricted diffusion; and near zero, stationary.

For series [8], the system named is T cell. The series can be described thus: Annexin V/PI apoptosis detection, T cells. The series is classed as cell-based. To be noted: 10 and 20 μM. How it is done: as §1
The test system of series [9] is reticuloma A20. In words: Annexin V/PI apoptosis detection, A20. The series is classed as cell-based. How it is done:
as §1

For series [10], the system named is EGFR. In words: EGFR phosphorylation. The series is classed as cell-based. To be noted: in the absence of the ligand.
Series [11] concerns TNFR1. The series can be described thus: Lipid raft isolation, TNFR1 in detergent resistant domains. The series is classed as cell-based. To be noted: human and mouse T cells.

Take `CCCCCCCCCC(=O)CC(=O)N[C@H]1CCOC1=O` [3OC12 HSL, N-(3-oxo-dodecanoyl) homoserine lactone]: the “sensitivity to 3OC12 HSL” value in series [1], in series [2] and in [9] was “sensitive” in each case. In [3], the “caspase 8 and 3 cleavage” value was “cleaved in a dose and time-dependent manner”. For the same compound, the “appearance of ordered lipid domains” value in series [4] (domains with cholesterol and sphingolipids) is “clear dissolution of the elevated plains”. For the same compound, the “appearance of smaller domains unrelated to lipid rafts” value in series [4] (mixture of DOPC and DPPG) is “minimally affected”. In addition, the “retention by coated lipid components” value in series [5] is “only lipid components containing cholesterol, sphingomyelin and DOPC were able to efficiently retain”. The EGFR dimerization result in series [6] was “increased the dimerization”. Besides, in series [7], the “Fcγ RIIA motion pattern” value is “higher percentage of Fcγ RIIA belonged to the simple and directed motions”. Also, the “Fcγ RIIA diffusion coefficient” value in [7] (without 3OC12 HSL 0.1056) is reported as 0.1564+/−0.006. The “area covered by Fcγ RIIA motion tracks” value in series [7] (without 3OC12 HSL 0.6467) is given as 0.9310+/−0.045. In addition, the T cell death result in [8] is given as “significant T cell death”. The EGFR phosphorylation entry in series [10] is on record as “became detectable”. The “TNFR1 associated with lipid rafts” value in series [11] is given as “reduced”.
